Assay results from US9533995B2, “Substituted N-heteroaryl spirolactam bipyrrolidines, preparation and therapeutic use thereof” (SANOFI, priority 2010, dated 2017).
Where a name gives a salt, the structure may show the parent alone.

Biological target: rhesus (Macacca Mulatta) H3 receptor (Macaca mulatta, UniProt Q865E1)
Assay: Rhesus H3 radioligand binding assay ([3H]-Methylhistamine displacement, WGA SPA beads)
Parameters: species or system rhesus monkey (Macacca Mulatta)
Settings: [3H]-Methylhistamine 2 nM, rhesus H3 membranes, 25° C., 1 hour; Cheng-Prusoff
Description: Rhesus H3 membranes were prepared from the Flp-In T-REx 293 Cell Line (Invitrogen) stably transfected with pcDNA5/FRT/TO (Invitrogen) containing the rhesus monkey (Macacca Mulatta) 445 amino acid H3 receptor. (Genbank #AY231164). Stably transfected cultures were amplified in tissue culture flasks by standard tissue culture methods and induced to express rhesus H3 by exposure to 500 ng/ml tetracycline (Cellgro) for 24 hours. After induction, cells were dissociated from flasks utilizing Cell Stripper (Cellgro). Cells were centrifuged (1K×g, 5 min) and pellet frozen in an ethanol-dry ice bath to disrupt cell membranes. Frozen cell pellet was re-suspended in 5 mM HEPES (pH 7.4, Invitrogen) at 10 ml/1000 cm2 of harvested cells. The cell suspension was drawn through an 18 gauge needle (2-3×) followed by a 23 gauge needle (2-3×) to further disrupt cell membranes. The cell suspension was centrifuged (40K×g, 30 min). Cell membrane pellet was re-suspended in 5 mM HEPES (pH 7.4, Invitrogen) at a final protein concentration of 10 mg/ml. Rhesus H3 membranes were stored under liquid nitrogen prior to use in [3H]-Methylhistamine and GTPγS radioligand binding assays.
Rhesus H3 radioligand binding assay was performed using rhesus H3 receptor membranes (prepared as described above), [3H]-Methylhistamine (Perkin Elmer) and WGA SPA beads (wheat germ agglutinin scintillation proximity assay) beads (Amersham). The assay was performed in 96-well Opti-Plates (Packard). Each reaction contained 50 μl rhesus H3 membranes (20-30 μg total protein), 50 μl WGA SPA beads (0.1 μg) and 50 μl of 83 Ci/mmol [^3H]-Methylhistamine (final concentration 2 nM) and 50 μl of tested compound. The compounds of this invention and/or vehicle were diluted with binding buffer from 10 mM DMSO stocks. Assay plates were sealed with TopSeal (Perkin Elmer) and mixed on shaker (25° C., 1 hour). Assay plates were read on TopCount scintillation counter (Packard). Results were analyzed by Hill transformation and Ki values were determined by Cheng-Prusoff equation.

Sequence of rhesus (Macacca Mulatta) H3 receptor (Q865E1 1-445): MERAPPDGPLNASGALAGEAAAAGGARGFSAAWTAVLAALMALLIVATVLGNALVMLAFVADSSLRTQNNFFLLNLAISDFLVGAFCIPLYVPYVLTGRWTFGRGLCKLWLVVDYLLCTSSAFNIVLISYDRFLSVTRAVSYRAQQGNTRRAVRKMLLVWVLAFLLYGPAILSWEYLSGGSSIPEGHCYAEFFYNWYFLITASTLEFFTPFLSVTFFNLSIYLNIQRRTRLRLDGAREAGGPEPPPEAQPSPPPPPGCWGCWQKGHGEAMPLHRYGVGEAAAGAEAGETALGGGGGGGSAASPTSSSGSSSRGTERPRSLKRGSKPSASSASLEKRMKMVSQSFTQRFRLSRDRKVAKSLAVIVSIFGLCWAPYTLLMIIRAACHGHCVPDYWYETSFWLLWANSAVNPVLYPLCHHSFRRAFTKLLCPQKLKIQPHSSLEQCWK

SMILES | Ki
Cc1nc(N2CC[C@@H](N3CCC[C@@H]3C)C2)ccc1N1CCCC2(CCOCC2)C1=O [Example 2, 2-[2-Methyl-6-((2S,3′R)-2-methyl-[1,3′]bipyrrolidinyl-1′-yl)-pyridin-3-yl]-9-oxa-2-aza-spiro[5.5]undecan-1-one] | 95.1 nM
Cc1nc(N2CC[C@@H](N3CCC[C@@H]3C)C2)ccc1N1CCC2(CCCCC2)C1=O [Example 6, 2-[2-Methyl-6-((2S,3′R)-2-methyl-[1,3′]bipyrrolidinyl-1′-yl)-pyridin-3-yl]-2-aza-spiro[4.5]decan-1-one] | 56.5 nM
Cc1nc(N2CC[C@@H](N3CCC[C@@H]3C)C2)ccc1N1CCC2(CCNCC2)C1=O [Example 8, 2-[2-Methyl-6-((2S,3′R)-2-methyl-[1,3′]bipyrrolidinyl-1′-yl)-pyridin-3-yl]-2,8-diaza-spiro[4.5]decan-1-one hydrochloride] | 17.5 nM
Cc1nc(N2CC[C@@H](N3CCC[C@@H]3C)C2)ccc1N1CCCC2(CCNCC2)C1=O [Example 9, 2-[2-Methyl-6-((2S,3′R)-2-methyl-[1,3′]bipyrrolidinyl-1′-yl)-pyridin-3-yl]-2,9-diaza-spiro[5.5]undecan-1-one hydrochloride] | 38.9 nM
Cc1nc(N2CC[C@H](N3CCC[C@@H]3C)C2)ccc1N1CCC2(CCNCC2)C1=O [Example 11, 2-[2-Methyl-6-((2S,3′S)-2-methyl-[1,3′]bipyrrolidinyl-1′-yl)-pyridin-3-yl]-2,8-diaza-spiro[4.5]decan-1-one] | 7.57 nM
C[C@H]1CCCN1[C@H]1CCN(c2ncc(N3CCC4(CCN(C(=O)OC(C)(C)C)CC4)C3=O)cn2)C1 [Example 12, 2-[2-((2S,3′S)-2-Methyl-[1,3′]bipyrrolidinyl-1′-yl)-pyrimidin-5-yl]-1-oxo-2,8-diaza-spiro[4.5]decane-8-carboxylic acid tert-butyl ester] | 48.5 nM
C[C@H]1CCCN1[C@H]1CCN(c2ccc(N3CCC4(CCOCC4)C3=O)nc2)C1 [Example 13, 2-[5-((2S,3′S)-2-Methyl-[1,3′]bipyrrolidinyl-1′-yl)-pyridin-2-yl]-8-oxa-2-aza-spiro[4.5]decan-1-one] | 22.3 nM
C[C@H]1CCCN1[C@H]1CCN(c2cnc(N3CCC4(CCN(C(=O)OC(C)(C)C)CC4)C3=O)cn2)C1 [Example 14, 2-[5-((2S,3′S)-2-Methyl-[1,3′]bipyrrolidinyl-1′-yl)-pyrazin-2-yl]-1-oxo-2,8-diaza-spiro[4.5]decane-8-carboxylic acid tert-butyl ester] | 105 nM
C[C@H]1CCCN1[C@H]1CCN(c2ncc(N3CCC4(CCOCC4)C3=O)cn2)C1 [Example 16, 2-[2-((2S,3′S)-2-Methyl-[1,3′]bipyrrolidinyl-1′-yl)-pyrimidin-5-yl]-8-oxa-2-aza-spiro[4.5]decan-1-one] | 4.21 nM

The remaining lines, values ahead:

Ki | SMILES
37.6 nM | Cc1nc(N2CC[C@@H](N3CCC[C@@H]3C)C2)ccc1N1CCC2(CCOCC2)C1=O [Example 1, 2-[2-Methyl-6-((2S,3′R)-2-methyl-[1,3′]bipyrrolidinyl-1′-yl)-pyridin-3-yl]-8-oxa-2-aza-spiro[4.5]decan-1-one]
267 nM | Cc1nc(N2CC[C@@H](N3CCC[C@@H]3C)C2)ccc1N1CCC2(CCC(O)CC2)C1=O (stereo partly drawn) [Example 5, 8-Hydroxy-2-[2-methyl-6-((2S,3′R)-2-methyl-[1,3′]bipyrrolidinyl-1′-yl)-pyridin-3-yl]-2-aza-spiro[4.5]decan-1-one]
7.1 nM | Cc1nc(N2CC[C@H](N3CCC[C@@H]3C)C2)ccc1N1CCC2(CCOCC2)C1=O [Example 7, 2-[2-Methyl-6-((2S,3′S)-2-methyl-[1,3′]bipyrrolidinyl-1′-yl)-pyridin-3-yl]-8-oxa-2-aza-spiro[4.5]decan-1-one]
26.3 nM | C[C@H]1CCCN1[C@H]1CCN(c2cnc(N3CCC4(CCNCC4)C3=O)cn2)C1 [Example 10, 2-[5-((2S,3′S)-2-Methyl-[1,3′]bipyrrolidinyl-1′-yl)-pyrazin-2-yl]-2,8-diaza-spiro[4.5]decan-1-one]
95.5 nM | Cc1nc(N2CC[C@H](N3CCC[C@@H]3C)C2)ccc1N1CCC2(CCN(C(=O)OC(C)(C)C)CC2)C1=O [Example 15, 2-[2-Methyl-6-((2S,3′S)-2-methyl-[1,3′]bipyrrolidinyl-1′-yl)-pyridin-3-yl]-1-oxo-2,8-diaza-spiro[4.5]decane-8-carboxylic acid tert-butyl ester]
